Experimental data published in ChEMBL document CHEMBL3885881, “DrugMatrix”.

Organism: Rattus norvegicus
Experiment: DrugMatrix - Regimen: Daily Repeat
Assay type: toxicity, organism-based, Sprague-Dawley
Set-up: regimen Daily Repeat, gender Male, age 6-8 weeks
Details: in vivo, po, route oral GAVAGE, vehicle 100 % WATER; for BASOPHIL / EOSINOPHIL / ERYTHROCYTE COUNT / HEMATOCRIT / HEMOGLOBIN / LEUKOCYTE COUNT / LYMPHOCYTE / MEAN CORPUSCULAR HEMOGLOBIN / MEAN CORPUSCULAR HEMOGLOBIN CONCENTRATION / MEAN CORPUSCULAR VOLUME / MONOCYTE / NEUTROPHIL / PLATELET COUNT: tissue Blood; for ALANINE AMINOTRANSFERASE / ALBUMIN / ALKALINE PHOSPHATASE / ASPARTATE AMINOTRANSFERASE / BLOOD UREA NITROGEN / CHLORIDE / CHOLESTEROL / CREATINE PHOSPHOKINASE / CREATININE / GLUCOSE / PHOSPHORUS / POTASSIUM / SODIUM / TOTAL BILIRUBIN / TOTAL PROTEIN: tissue Plasma
[1] = 0 mg/kg, 72 h, dose level Control, time 3 day
[2] = 0 mg/kg, 120 h, dose level Control, time 5 day
[3] = 45 mg/kg, 72 h, dose level Low, time 3 day
[4] = 45 mg/kg, 120 h, dose level Low, time 5 day

Nc1ccc(S(=O)(=O)Nc2ncccn2)cc1 [SULFADIAZINE] was tested, and the BASOPHIL [1] was 0%, the EOSINOPHIL [1] was 0.5% and the “ERYTHROCYTE COUNT” value [1] was 5.8 x10E6/uL. For the same molecule, the HEMATOCRIT [1] was 35.07%, the HEMOGLOBIN [1] was 14.12 G/DL and the “LEUKOCYTE COUNT” value [1] was 13.7 x10E3/uL. For the same molecule, the LYMPHOCYTE [1] was 82.33%, the “MEAN CORPUSCULAR HEMOGLOBIN” value [1] was 24.38 pg and the “MEAN CORPUSCULAR HEMOGLOBIN CONCENTRATION” value [1] was 40.28 G/DL. The “MEAN CORPUSCULAR VOLUME” value [1] was 60.52 fL, the MONOCYTE [1] was 2.67% and the NEUTROPHIL [1] was 14.5%. For the same molecule, the “PLATELET COUNT” value [1] was 911.5 x10E3/uL, the “ALANINE AMINOTRANSFERASE” value [1] was 36.83 u/L and the ALBUMIN [1] was 3.75 G/DL. The “ALKALINE PHOSPHATASE” value [1] was 399.83 u/L, the “ASPARTATE AMINOTRANSFERASE” value [1] was 66 u/L and the “BLOOD UREA NITROGEN” value [1] was 14.67 mg/dL. For the same molecule, the CHLORIDE [1] was 101.67 MEQ/L, the CHOLESTEROL [1] was 66.33 mg/dL and the “CREATINE PHOSPHOKINASE” value [1] was 139.5 u/L. For the same molecule, the CREATININE [1] was 0.92 mg/dL, the GLUCOSE [1] was 175 mg/dL and the PHOSPHORUS [1] was 11.42 mg/dL. The POTASSIUM [1] was 7.03 MEQ/L, the SODIUM [1] was 148.5 MEQ/L and the “TOTAL BILIRUBIN” value [1] was 1.13 mg/dL. For the same molecule, the “TOTAL PROTEIN” value [1] was 6.87 G/DL, the BASOPHIL [2] was 0% and the EOSINOPHIL [2] was 0.2%. The “ERYTHROCYTE COUNT” value [2] was 6.02 x10E6/uL, the HEMATOCRIT [2] was 36.48% and the HEMOGLOBIN [2] was 14.38 G/DL. The “LEUKOCYTE COUNT” value [2] was 12.34 x10E3/uL, the LYMPHOCYTE [2] was 83% and the “MEAN CORPUSCULAR HEMOGLOBIN” value [2] was 23.92 pg. The “MEAN CORPUSCULAR HEMOGLOBIN CONCENTRATION” value [2] was 39.44 G/DL, the “MEAN CORPUSCULAR VOLUME” value [2] was 60.66 fL and the MONOCYTE [2] was 3%. For the same molecule, the NEUTROPHIL [2] was 13.8%, the “PLATELET COUNT” value [2] was 1190.6 x10E3/uL and the “ALANINE AMINOTRANSFERASE” value [2] was 43 u/L. The ALBUMIN [2] was 3.73 G/DL, the “ALKALINE PHOSPHATASE” value [2] was 393 u/L and the “ASPARTATE AMINOTRANSFERASE” value [2] was 62.33 u/L. For the same molecule, the “BLOOD UREA NITROGEN” value [2] was 16.33 mg/dL, the CHLORIDE [2] was 101.67 MEQ/L and the CHOLESTEROL [2] was 65.5 mg/dL. For the same molecule, the “CREATINE PHOSPHOKINASE” value [2] was 130.67 u/L, the CREATININE [2] was 0.58 mg/dL and the GLUCOSE [2] was 180.67 mg/dL. The PHOSPHORUS [2] was 11.28 mg/dL, the POTASSIUM [2] was 7.05 MEQ/L and the SODIUM [2] was 148.17 MEQ/L. For the same molecule, the “TOTAL BILIRUBIN” value [2] was 0.72 mg/dL, the “TOTAL PROTEIN” value [2] was 6.83 G/DL and the BASOPHIL [3] was 0%. The EOSINOPHIL [3] was 0%, the “ERYTHROCYTE COUNT” value [3] was 6.15 x10E6/uL and the HEMATOCRIT [3] was 35.77%. For the same molecule, the HEMOGLOBIN [3] was 14.2 G/DL, the “LEUKOCYTE COUNT” value [3] was 14.83 x10E3/uL and the LYMPHOCYTE [3] was 84%. The “MEAN CORPUSCULAR HEMOGLOBIN” value [3] was 23.1 pg, the “MEAN CORPUSCULAR HEMOGLOBIN CONCENTRATION” value [3] was 39.67 G/DL and the “MEAN CORPUSCULAR VOLUME” value [3] was 58.17 fL. The MONOCYTE [3] was 2%, the NEUTROPHIL [3] was 14% and the “PLATELET COUNT” value [3] was 1166 x10E3/uL. For the same molecule, the “ALANINE AMINOTRANSFERASE” value [3] was 33 u/L, the ALBUMIN [3] was 3.57 G/DL and the “ALKALINE PHOSPHATASE” value [3] was 285 u/L. The “ASPARTATE AMINOTRANSFERASE” value [3] was 56 u/L, the “BLOOD UREA NITROGEN” value [3] was 11.67 mg/dL and the CHLORIDE [3] was 102 MEQ/L. For the same molecule, the CHOLESTEROL [3] was 73.33 mg/dL, the “CREATINE PHOSPHOKINASE” value [3] was 134 u/L and the CREATININE [3] was 0.6 mg/dL. The GLUCOSE [3] was 186 mg/dL, the PHOSPHORUS [3] was 11.9 mg/dL and the POTASSIUM [3] was 7 MEQ/L. For the same molecule, the SODIUM [3] was 149.67 MEQ/L, the “TOTAL BILIRUBIN” value [3] was 0.3 mg/dL and the “TOTAL PROTEIN” value [3] was 6.33 G/DL. For the same molecule, the BASOPHIL [4] was 0%, the EOSINOPHIL [4] was 0.33% and the “ERYTHROCYTE COUNT” value [4] was 6.55 x10E6/uL. For the same molecule, the HEMATOCRIT [4] was 40.3%, the HEMOGLOBIN [4] was 15.6 G/DL and the “LEUKOCYTE COUNT” value [4] was 12.63 x10E3/uL. For the same molecule, the LYMPHOCYTE [4] was 84%, the “MEAN CORPUSCULAR HEMOGLOBIN” value [4] was 23.9 pg and the “MEAN CORPUSCULAR HEMOGLOBIN CONCENTRATION” value [4] was 38.8 G/DL. The “MEAN CORPUSCULAR VOLUME” value [4] was 61.57 fL, the MONOCYTE [4] was 1% and the NEUTROPHIL [4] was 14.67%. The “PLATELET COUNT” value [4] was 1086.33 x10E3/uL, the “ALANINE AMINOTRANSFERASE” value [4] was 37.67 u/L and the ALBUMIN [4] was 3.9 G/DL. For the same molecule, the “ALKALINE PHOSPHATASE” value [4] was 378 u/L, the “ASPARTATE AMINOTRANSFERASE” value [4] was 55.67 u/L and the “BLOOD UREA NITROGEN” value [4] was 12.67 mg/dL. The CHLORIDE [4] was 104 MEQ/L, the CHOLESTEROL [4] was 66.33 mg/dL and the “CREATINE PHOSPHOKINASE” value [4] was 110.67 u/L. For the same molecule, the CREATININE [4] was 0.63 mg/dL, the GLUCOSE [4] was 181.67 mg/dL and the PHOSPHORUS [4] was 12.57 mg/dL. For the same molecule, the POTASSIUM [4] was 7.23 MEQ/L, the SODIUM [4] was 151.33 MEQ/L and the “TOTAL BILIRUBIN” value [4] was 0.4 mg/dL. The “TOTAL PROTEIN” value [4] was 7.03 G/DL.
